# Biological target: GABA-B receptor (Rattus norvegicus (Rat), UniProt O88871+Q9Z0U4)
# Assay: [35S]GTPgS Binding Assay (rat brain cortex membranes, native receptor)
# Type: biochemical
# Details: rat cortical membranes; in the presence of 1 μM GABA (EC25); basal binding 0%, maximal binding (1 mM GABA) 100%
# Description: Preparation of Rat Brain Membranes for Native Receptor Assays
# Membranes from rat brain cortex were prepared as described in detail by Olpe et al. and stored at concentrations of 1.66 mg/mL protein at −80° C. until required. (Olpe, H.-R, et al. Eur J Pharmacol 1990; 187: 27-38).
# [^35S]GTPgS Binding Assay
# The samples were incubated at room temperature for 60 minutes on a shaker. The incubation was stopped by rapid vacuum filtration over glass-fiber filter plates (UniFilter-96 well, GF/B membrane plates, PerkinElmer) using a 96-well plate harvester (TOMTEK© Harvester). The UniFilter plate was washed five times with ice-cold wash buffer (50 mM Tris-HCl buffer, pH 7.7, 10 mM MgCl2, and 100 mM NaCl. After filtration the plate was dried for 90 minutes at 55° C. The plates were closed on the bottom with black sealing membranes, and liquid scintillation cocktail (35 μL, Betaplate Scint, PerkinElmer) was added to each well. After sealing the top of the plate, an additional incubation step of 90 minutes at room temperature followed before measuring the plate. The amount of membrane-bound [^35S]GTPgS was measured using a 96-well plate reader (Microbeta®, PerkinElmer). Nonspecific binding was measured in the presence of unlabeled 10 μM of GTPgS (Millipore) and without GABA. Basal binding was measured in the absence of 1 μM GABA, and maximal binding was measured in the presence of GABA using 1 mM GABA concentrations.
# Data analysis. The concentration-response curves of compounds of the present disclosure in the presence of EC25 of GABA-B receptor agonist were generated using the GraphPad Prism® program (GraphPad Software, San Diego, Calif.). Data was normalized using basal binding as 0% and maximal binding as 100%. The curves were fitted by nonlinear regression allowing determination of EC50 values from sigmoidal dose-response curves. Each curve was performed using triplicate sample per date point and 10 concentrations.
# GABA-B receptor, sequence (Q9Z0U4 17-960): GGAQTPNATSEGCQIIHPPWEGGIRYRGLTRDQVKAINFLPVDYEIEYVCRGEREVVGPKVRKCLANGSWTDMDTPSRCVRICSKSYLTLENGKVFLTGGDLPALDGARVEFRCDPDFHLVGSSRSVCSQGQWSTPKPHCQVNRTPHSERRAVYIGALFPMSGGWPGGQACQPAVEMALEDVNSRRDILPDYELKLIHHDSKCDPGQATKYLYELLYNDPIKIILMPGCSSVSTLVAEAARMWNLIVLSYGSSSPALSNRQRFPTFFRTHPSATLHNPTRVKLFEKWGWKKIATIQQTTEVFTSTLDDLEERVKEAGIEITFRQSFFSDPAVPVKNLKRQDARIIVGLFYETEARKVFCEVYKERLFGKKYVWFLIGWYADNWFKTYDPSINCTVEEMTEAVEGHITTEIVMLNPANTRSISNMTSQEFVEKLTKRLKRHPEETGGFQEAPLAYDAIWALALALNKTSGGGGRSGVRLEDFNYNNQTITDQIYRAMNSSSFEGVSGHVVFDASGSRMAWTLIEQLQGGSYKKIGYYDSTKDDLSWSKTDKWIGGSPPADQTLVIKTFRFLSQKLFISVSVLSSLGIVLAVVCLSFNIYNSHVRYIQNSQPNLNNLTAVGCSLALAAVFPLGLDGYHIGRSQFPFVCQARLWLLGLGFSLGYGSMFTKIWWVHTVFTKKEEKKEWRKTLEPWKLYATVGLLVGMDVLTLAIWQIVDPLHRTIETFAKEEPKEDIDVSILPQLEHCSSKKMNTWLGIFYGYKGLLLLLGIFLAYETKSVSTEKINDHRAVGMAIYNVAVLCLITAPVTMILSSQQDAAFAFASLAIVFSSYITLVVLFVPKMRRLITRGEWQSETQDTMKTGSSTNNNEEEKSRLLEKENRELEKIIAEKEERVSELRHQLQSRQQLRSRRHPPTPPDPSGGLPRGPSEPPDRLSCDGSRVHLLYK
# GABA-B receptor, sequence (O88871 41-940): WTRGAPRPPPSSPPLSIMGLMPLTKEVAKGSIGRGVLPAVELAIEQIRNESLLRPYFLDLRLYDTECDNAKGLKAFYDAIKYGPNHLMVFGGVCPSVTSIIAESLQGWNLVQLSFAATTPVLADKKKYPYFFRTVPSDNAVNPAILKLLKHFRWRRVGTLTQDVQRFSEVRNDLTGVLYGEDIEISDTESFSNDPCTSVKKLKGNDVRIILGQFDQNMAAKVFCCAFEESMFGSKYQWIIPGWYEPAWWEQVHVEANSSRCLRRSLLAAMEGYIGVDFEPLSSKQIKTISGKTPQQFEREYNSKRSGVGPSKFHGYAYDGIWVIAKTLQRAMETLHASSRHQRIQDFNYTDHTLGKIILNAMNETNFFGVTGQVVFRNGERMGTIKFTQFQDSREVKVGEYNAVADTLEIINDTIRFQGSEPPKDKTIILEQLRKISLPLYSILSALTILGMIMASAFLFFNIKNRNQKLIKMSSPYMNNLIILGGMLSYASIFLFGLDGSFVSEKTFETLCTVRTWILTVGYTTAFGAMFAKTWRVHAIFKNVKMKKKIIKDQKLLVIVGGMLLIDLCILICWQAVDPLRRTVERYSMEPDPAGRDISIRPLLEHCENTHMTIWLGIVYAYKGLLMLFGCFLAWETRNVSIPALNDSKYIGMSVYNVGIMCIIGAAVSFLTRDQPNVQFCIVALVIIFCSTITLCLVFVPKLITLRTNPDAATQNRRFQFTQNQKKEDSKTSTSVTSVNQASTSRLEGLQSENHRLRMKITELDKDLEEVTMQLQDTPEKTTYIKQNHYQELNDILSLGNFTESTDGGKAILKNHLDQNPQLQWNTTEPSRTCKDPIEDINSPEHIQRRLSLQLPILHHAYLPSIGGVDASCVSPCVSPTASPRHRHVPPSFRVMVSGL
row,Compound,EC50 [µM]
1,"7-(4-fluorophenyl)-3-methyl-5-(pyridin-4-ylmethyl)[1,2]oxazolo[4,5-d]pyridazin-4(5H)-one [Example 74]",3.41
2,"Cc1nn([C@H](C)c2ccc(Cl)cc2)c(=O)c2c(C)noc12 (single isomer, unassigned) [Example 58]",> 10
3,"COc1ccc(-c2nn(Cc3ccc(Cl)cc3)c(=O)c3c(C)noc23)cc1 [Example 2, 5-(4-chlorobenzyl)-7-(4-methoxyphenyl)-3-methyl[1,2]oxazolo[4,5-d]pyridazin-4(5H)-one]",> 10
4,"COc1ccc(NC(C)=O)cc1-c1nn([C@H](C)c2ccc(Cl)cc2)c(=O)c2c(C3CC3)noc12 [Example 3, N-(3-{5-[(1R)-1-(4-chlorophenyl)ethyl]-3-cyclopropyl-4-oxo-4,5-dihydro[1,2]oxazolo[4,5-d]pyridazin-7-yl}-4-methoxyphenyl)acetamide]",> 10
5,"Cc1noc2c(-c3cc(Cl)ccc3N)nn(C(C)c3ccc(Cl)cc3)c(=O)c12 (stereo not shown) [Example 6, 7-(2-amino-5-chlorophenyl)-5-[1-(4-chlorophenyl)ethyl]-3-methyl[1,2]oxazolo[4,5-d]pyridazin-4(5H)-one]",1.96
6,CC(=O)Nc1cc(-c2nn(Cc3ccc(Cl)cc3)c(=O)c3c(C)noc23)ccc1F [Example 8],2.11
7,"Cc1noc2c(-c3cc(C(F)(F)F)ccc3N)nn(C(C)c3ccc(Cl)cc3)c(=O)c12 (stereo not shown) [Example 11, 7-[2-amino-5-(trifluoromethyl)phenyl]-5-[1-(4-chlorophenyl)ethyl]-3-methyl[1,2]oxazolo[4,5-d]pyridazin-4(5H)-one]",> 10
8,"Cc1noc2c(-c3ccccc3N)nn(C(C)c3ccc(Cl)cc3)c(=O)c12 (stereo not shown) [Example 14, 7-(2-aminophenyl)-5-[1-(4-chlorophenyl)ethyl]-3-methyl[1,2]oxazolo[4,5-d]pyridazin-4(5H)-one]",2.13
9,"Cc1noc2c(-c3cncc(F)c3)nn(C(C)c3ccc(Cl)cc3)c(=O)c12 (stereo not shown) [Example 22, 5-[1-(4-chlorophenyl)ethyl]-7-(5-fluoropyridin-3-yl)-3-methyl[1,2]oxazolo[4,5-d]pyridazin-4(5H)-one]",2.69
10,"Cc1noc2c(-c3cccc(F)c3)nn(Cc3ccc(Cl)cc3)c(=O)c12 [Example 23, 5-(4-chlorobenzyl)-7-(3-fluorophenyl)-3-methyl[1,2]oxazolo[4,5-d]pyridazin-4(5H)-one]",> 10
11,"Cc1noc2c(-c3cccc(NS(C)(=O)=O)c3)nn(C(C)c3ccc(Cl)cc3)c(=O)c12 (stereo not shown) [Example 24, N-(3-{5-[1-(4-chlorophenyl)ethyl]-3-methyl-4-oxo-4,5-dihydro[1,2]oxazolo[4,5-d]pyridazin-7-yl}phenyl)methanesulfonamide]",1.85
12,"COCc1noc2c(-c3cccc(NC(C)=O)c3)nn(Cc3ccc(Cl)cc3)c(=O)c12 [Example 27, N-{3-[5-(4-chlorobenzyl)-3-(methoxymethyl)-4-oxo-4,5-dihydro[1,2]oxazolo[4,5-d]pyridazin-7-yl]phenyl}acetamide]",3.2
13,"Cc1noc2c(-c3ccc(F)cc3)nn(Cc3ccc(Cl)c(C(F)(F)F)c3)c(=O)c12 [Example 28, 5-[4-chloro-3-(trifluoromethyl)benzyl]-7-(4-fluorophenyl)-3-methyl[1,2]oxazolo[4,5-d]pyridazin-4(5H)-one]",3.47
14,"CC(=O)Nc1cccc(-c2nn([C@H](C)c3ccc(Cl)cc3)c(=O)c3c(C)noc23)c1 [Example 34, N-(3-{5-[(1R)-1-(4-chlorophenyl)ethyl]-3-methyl-4-oxo-4,5-dihydro[1,2]oxazolo[4,5-d]pyridazin-7-yl}phenyl)acetamide]",4.81
15,"COc1ccc(-c2nn(Cc3ccc(F)c(C(F)(F)F)c3)c(=O)c3c(C)noc23)c(OC)c1 [Example 37, 7-(2,4-dimethoxyphenyl)-5-[4-fluoro-3-(trifluoromethyl)benzyl]-3-methyl[1,2]oxazolo[4,5-d]pyridazin-4(5H)-one]",3.67
16,"COc1ccc(NC(C)=O)cc1-c1nn([C@H](C)c2ccc(Cl)cc2)c(=O)c2c(C)noc12 [Example 40, N-(3-{5-[(1R)-1-(4-chlorophenyl)ethyl]-3-methyl-4-oxo-4,5-dihydro[1,2]oxazolo[4,5-d]pyridazin-7-yl}-4-methoxyphenyl)acetamide]",> 10
17,"Cc1noc2c(-c3ccc(F)c(F)c3)nn(Cc3ccc(Cl)cc3)c(=O)c12 [Example 42, 5-(4-chlorobenzyl)-7-(3,4-difluorophenyl)-3-methyl[1,2]oxazolo[4,5-d]pyridazin-4(5H)-one]",9.64

# Further compounds by falling EC50, results first:
row,EC50 [µM],Compound
1,1.81,"Cc1nn([C@@H](C)c2ccc(Cl)cc2)c(=O)c2c(C)noc12 (single isomer, unassigned) [Example 31]"
2,1.76,"CCc1nn([C@H](c2ccccc2)c2ccc(Cl)cc2)c(=O)c2c(CC)noc12 (single isomer, unassigned) [Example 75]"
3,1.66,"Cc1noc2c(-c3cc(F)nc(F)c3)nn(C(C)c3ccc(Cl)cc3)c(=O)c12 (stereo not shown) [Example 4, 5-[1-(4-chlorophenyl)ethyl]-7-(2,6-difluoropyridin-4-yl)-3-methyl[1,2]oxazolo[4,5-d]pyridazin-4(5H)-one]"
4,1.58,"Cc1noc2c(-c3ccc(F)cc3)nn(Cc3ccc(C(F)(F)F)cc3)c(=O)c12 [Example 19, 7-(4-fluorophenyl)-3-methyl-5-[4-(trifluoromethyl)benzyl][1,2]oxazolo[4,5-d]pyridazin-4(5H)-one]"
5,1.39,"CCc1nn([C@@H](c2ccccc2)c2ccc(Cl)cc2)c(=O)c2c(CC)noc12 (single isomer, unassigned) [Example 89]"
6,1.06,"COc1ccc(OC)c(-c2nn(CCc3ccc(Cl)cc3)c(=O)c3c(C)noc23)c1 [Example 10, 5-[2-(4-chlorophenyl)ethyl]-7-(2,5-dimethoxyphenyl)-3-methyl[1,2]oxazolo[4,5-d]pyridazin-4(5H)-one]"
7,0.895,"CCc1noc2c(-c3cc(OC)ccc3OC)nn(Cc3ccc(Cl)cc3)c(=O)c12 [Example 36, 5-(4-chlorobenzyl)-7-(2,5-dimethoxyphenyl)-3-ethyl[1,2]oxazolo[4,5-d]pyridazin-4(5H)-one]"
8,0.643,COc1ccc(C(=O)N(C)C)cc1-c1nn(C(C)c2ccc(Cl)cc2)c(=O)c2c(C)noc12 (stereo not shown) [Example 38]
9,0.6,"Cc1noc2c(-c3cccnc3Cl)nn(C(C)c3ccc(Cl)cc3)c(=O)c12 (stereo not shown) [Example 7, 5-[1-(4-chlorophenyl)ethyl]-7-(2-chloropyridin-3-yl)-3-methyl[1,2]oxazolo[4,5-d]pyridazin-4(5H)-one]"
10,0.562,"CC(=O)Nc1ccc(C)c(-c2nn([C@H](C)c3ccc(C(F)(F)F)cc3)c(=O)c3c(C)noc23)c1 [Example 35, N-[4-methyl-3-(3-methyl-4-oxo-5-{(1R)-1-[4-(trifluoromethyl)phenyl]ethyl}-4,5-dihydro[1,2]oxazolo[4,5-d]pyridazin-7-yl)phenyl]acetamide]"
11,0.389,"CC(=O)Nc1ccc(C)c(-c2nn(C(C)c3ccc(Cl)cc3)c(=O)c3c(C)noc23)c1 (stereo not shown) [Example 18, N-(3-{5-[1-(4-chlorophenyl)ethyl]-3-methyl-4-oxo-4,5-dihydro[1,2]oxazolo[4,5-d]pyridazin-7-yl}-4-methylphenyl)acetamide]"
12,0.376,"COc1ccc(NC(C)=O)cc1-c1nn(Cc2ccc(Cl)cc2)c(=O)c2c(C)noc12 [Example 45, N-{3-[5-(4-chlorobenzyl)-3-methyl-4-oxo-4,5-dihydro[1,2]oxazolo[4,5-d]pyridazin-7-yl]-4-methoxyphenyl}acetamide]"
13,0.347,"Cc1noc2c(-c3ccc4cc[nH]c4c3)nn(C(C)c3ccc(Cl)cc3)c(=O)c12 (stereo not shown) [Example 12, 5-[1-(4-chlorophenyl)ethyl]-7-(1H-indol-6-yl)-3-methyl[1,2]oxazolo[4,5-d]pyridazin-4(5H)-one]"
14,0.229,"COc1ccc(OC)c(-c2nn(C(C)c3ccc(Cl)cc3)c(=O)c3c(C)noc23)c1 (stereo not shown) [Example 21, 5-[1-(4-chlorophenyl)ethyl]-7-(2,5-dimethoxyphenyl)-3-methyl[1,2]oxazolo[4,5-d]pyridazin-4(5H)-one]"
15,0.222,"Cc1ccc(O)cc1-c1nn(C(C)c2ccc(Cl)cc2)c(=O)c2c(C)noc12 (stereo not shown) [Example 16, 5-[1-(4-chlorophenyl)ethyl]-7-(5-hydroxy-2-methylphenyl)-3-methyl[1,2]oxazolo[4,5-d]pyridazin-4(5H)-one]"
16,0.105,"COc1ccc(NC(C)=O)cc1-c1nn(C(C)c2ccc(Cl)cc2)c(=O)c2c(C)noc12 (stereo not shown) [Example 39, N-(3-{5-[1-(4-chlorophenyl)ethy]-3-methyl-4-oxo-4,5-dihydro[1,2]oxazolo[4,5-d]pyridazin-7-yl}-4-methoxyphenyl)acetamide]"
17,0.051,"COc1ccc(NC(C)=O)cc1-c1nn([C@@H](C)c2ccc(Cl)cc2)c(=O)c2c(C3CC3)noc12 [Example 1, N-(3-{5-[(1S)-1-(4-chlorophenyl)ethyl]-3-cyclopropyl-4-oxo-4,5-dihydro[1,2]oxazolo[4,5-d]pyridazin-7-yl}-4-methoxyphenyl)acetamide]"
